# Data from patent publication US11945784B2, “IRE1 small molecule inhibitors” (Cornell University, priority 2018, dated 2024).
# Molecular target: T1, IRE1α (Homo sapiens (Human), UniProt O75460)
# Test: In vitro FRET assay
# Assay type: biochemical
# Settings: XBP1 RNA probe
# Protocol: In vitro FRET assay was performed to evaluate the ability of select compounds to inhibit IRE1, the results of which are summarized in Table 3. To perform the in vitro FRET assay, 1× complete assay buffer (CAB; […], 50 mM sodium citrate pH 7.15, 1 mM magnesium acetate, 0.02% tween 20) was used to dilute SignalChem IRE1α protein to a final concentration of 2 nM. Selected compounds were serially diluted with DMSO in a non-binding black 384-well plate for a total of 15 ul in each well. 2 ul of the serially diluted compound or DMSO control were then added to new wells containing 98 ul of 1×CAB, for a total volume of 100 ul, 10 ul of which were then transferred to wells of a new plate. 5 ul of the diluted IRE1α was then added to each well. 5 ul of a […] XBP1 RNA probe was then added to each well. Fluorescence was then read over 30 minutes in kinetic mode (485/515 nm).
# Two RNA probes were used, XBP1 wildtype (SEQ ID NO: 2) which is able to be spliced by active IRE1α or XBP1 mutant (SEQ ID NO: 3) which is unable to be spliced. Each probe contained a 5′ 6-FAM modification and a 3′ IOWA Black FQ modification.
# A second FRET assay was performed to assess ATP-mediated inhibition. In this case, compounds and IRE1α were prepared and combined as discussed above, with the addition of ATP up to 1 mM final concentration. This mixture was incubated at room temperature for 60 minutes and then 5 ul of 400 nM XBP1 wildtype or mutant RNA probe was added. Plates were then read over 30 minutes in kinetic mode (485/515 nm) and rate of fluorescence increase calculated for different compound dilutions to determine IC50 (Table 3).
# T1 sequence (O75460 19-977): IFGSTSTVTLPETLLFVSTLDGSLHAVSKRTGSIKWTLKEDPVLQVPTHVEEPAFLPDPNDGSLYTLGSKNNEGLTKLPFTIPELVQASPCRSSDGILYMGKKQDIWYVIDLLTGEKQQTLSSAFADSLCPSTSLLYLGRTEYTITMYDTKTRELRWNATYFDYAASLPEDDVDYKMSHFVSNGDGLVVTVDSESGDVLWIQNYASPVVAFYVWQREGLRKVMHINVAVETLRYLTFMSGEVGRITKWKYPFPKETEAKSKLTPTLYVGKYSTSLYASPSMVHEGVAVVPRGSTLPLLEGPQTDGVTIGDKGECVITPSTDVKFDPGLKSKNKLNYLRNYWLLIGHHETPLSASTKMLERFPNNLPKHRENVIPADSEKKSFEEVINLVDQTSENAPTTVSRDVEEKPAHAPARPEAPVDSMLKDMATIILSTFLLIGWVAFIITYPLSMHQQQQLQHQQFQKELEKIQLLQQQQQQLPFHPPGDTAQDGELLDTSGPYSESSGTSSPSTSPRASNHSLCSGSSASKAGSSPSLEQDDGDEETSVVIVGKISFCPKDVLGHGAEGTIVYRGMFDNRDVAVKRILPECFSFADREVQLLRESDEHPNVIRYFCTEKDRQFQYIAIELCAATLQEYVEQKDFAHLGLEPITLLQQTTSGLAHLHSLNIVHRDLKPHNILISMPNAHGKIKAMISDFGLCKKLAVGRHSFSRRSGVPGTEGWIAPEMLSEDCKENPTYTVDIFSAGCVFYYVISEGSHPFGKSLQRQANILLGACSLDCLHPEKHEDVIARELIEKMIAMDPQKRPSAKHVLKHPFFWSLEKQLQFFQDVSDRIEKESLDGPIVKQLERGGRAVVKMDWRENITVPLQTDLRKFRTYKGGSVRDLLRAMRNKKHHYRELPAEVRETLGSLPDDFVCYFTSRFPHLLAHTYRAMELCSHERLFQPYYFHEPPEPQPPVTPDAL
row,IC50,Compound
1,≤ 1 nM,"Cc1cc(NS(=O)(=O)c2ccccc2Cl)ccc1CCc1cnc(NC2CCC(N)CC2)nc1 (centres unmarked) [Compound 6, N-(4-(2-(2-(((1r,4r)-4-aminocyclohexyl)amino)pyrimidin-5-yl)ethyl)-3-methylphenyl)-2-chlorobenzenesulfonamide]"
2,1 to 5 nM,"N[C@H]1CC[C@H](Nc2ncc(CCc3ccc(NS(=O)(=O)c4ccccc4Cl)nn3)cn2)CC1 [Compound 7, N-(6-(2-(2-(((1r,4r)-4-aminocyclohexyl)amino)pyrimidin-5-yl)ethyl)pyridazin-3-yl)-2-chlorobenzenesulfonamide]"
3,1 to 5 nM,"COc1nc(NS(=O)(=O)c2ccccc2Cl)ccc1/C=C/c1cnc(NC2CCC(O)CC2)nc1 (centres unmarked) [Compound 11, 2-chloro-N-(5-((E)-2-(2-(((1r,4r)-4-hydroxycyclohexyl)amino)pyrimidin-5-yl)vinyl)-6-methoxypyridin-2-yl)benzenesulfonamide]"
4,5 to 50 nM,"COc1nc(NS(=O)(=O)c2ccccc2Cl)ccc1CCc1cnc(NC2CCC(O)CC2)nc1 (centres unmarked) [Compound 12, 2-chloro-N-(5-(2-(2-(((1r,4r)-4-hydroxycyclohexyl)amino)pyrimidin-5-yl)ethyl)-6-methoxypyridin-2-yl)benzenesulfonamide]"
5,1 to 5 nM,"COc1nc(NS(=O)(=O)c2ccccc2Cl)ccc1CCc1ccc(NC2CCC(N)CC2)nc1 (centres unmarked) [Compound 13, N-(5-(2-(6-(((1r,4r)-4-aminocyclohexyl)amino)pyridin-3-yl)ethyl)-6-methoxypyridin-2-yl)-2-chlorobenzenesulfonamide]"
6,≤ 1 nM,"COc1cc(NS(=O)(=O)c2ccccc2Cl)cnc1CCc1cnc(NC2CCC(N)CC2)nc1 (centres unmarked) [Compound 18, N-(6-(2-(2-(((1r,4r)-4-aminocyclohexyl)amino)pyrimidin-5-yl)ethyl)-5-methoxypyridin-3-yl)-2-chlorobenzenesulfonamide]"

# Molecular target: T1, IRE1α
# Test: In vitro luciferase assay (IRE1α Endoribonuclease Nanoluciferase Assay)
# Assay type: cell-based
# Settings: 293T cells, XBP1 luciferase reporter
# Protocol: Compounds disclosed herein were assessed for disruption of IRE-1 signaling using a IRE1α Endoribonuclease Nanoluciferase Assay. Briefly, 2.5×10^6 293T cells were seeded in a 10 cm^2 tissue culture plate. About 24 hours later, the cells were transfected with Effectene. In a 15 mL Tube, the following was added: 2 μg XBP1 luciferase reporter plasmid (PGK-Luc2-P2A-XBP1u-Nanoluciferase-PEST); 300 μl EC buffer; and 16 μl Enhancer, followed by incubation at room temp for 5 minutes. Next, 60 μl Effectene (Qiagen 301427) was added, followed by incubation at room temperature for 10 minutes. 2.6 mL cDMEM media was added. Old media was aspirated from the cells, followed by addition of 7 mL fresh media. Full transfection mixture was added dropwise to cells. Cells were incubated for 6 hours, followed by trypsinization, centrifugation and resuspension in 11 mL media. 100 uL of cells were plated per a well in a 96 well plate. A day later, ER stressors of choice+/−inhibitors were added. To harvest, media was aspirated from cells completely, then 50 uL 1× passive lysis buffer (Promega: E1941) was added per well and put on shaker (300 rpm) for 30 minutes at room temperature. Cells were centrifuged, and 15 uL sample per well was added to a new, opaque white 384 well plate (Corning 3570). 15 uL OneGlo (nanoluciferase kit, Promega N1630) was added. Plates were spun down, placed on shaker (300 rpm) for 10 minutes. Plates were read on luminometer, 1000 ms integration time per well. 15 uL Stop and Glo (nanoluciferase kit) was added. Plates were spun down, placed on shaker (300 rpm) for 10 minutes. Plates were read on luminometer, 1000 ms second integration time per well. Recordings are provided below in Table 4
row,Compound,EC50
1,"COc1nc(NS(=O)(=O)c2cccc(F)c2Cl)ccc1/C=C/c1cnc(NC2CCC(N(C)C)CC2)nc1 (single isomer, unassigned) [Compound 53, 2-chloro-N-(5-((E)-2-(2-(((1r,4r)-4-(dimethylamino)cyclohexyl)amino)pyrimidin-5-yl)vinyl)-6-methoxypyridin-2-yl)-3-fluorobenzenesulfonamide]",50 to 100 nM
2,"NC1CCC(Nc2ncc(/C=C/c3ccc(NS(=O)(=O)c4ccccc4Cl)c(F)c3)cn2)CC1 (centres unmarked) [Compound 3, N-(4-((E)-2-(2-(((1r,4r)-4-aminocyclohexyl)amino)pyrimidin-5-yl)vinyl)-2-fluorophenyl)-2-chlorobenzenesulfonamide]",≤ 5 nM
3,"CN(C)C1CCC(Nc2ncc(/C=C/c3ccc(NS(=O)(=O)c4ccccc4Cl)nn3)cn2)CC1 (centres unmarked) [Compound 52, 2-chloro-N-(6-((E)-2-(2-(((1r,4r)-4-(dimethylamino)cyclohexyl)amino)pyrimidin-5-yl)vinyl)pyridazin-3-yl)benzenesulfonamide]",5 to 50 nM
4,"COc1nc(NS(=O)(=O)c2ccccc2Cl)c(F)cc1/C=C/c1cnc(NC2CCC(N)CC2)nc1 (centres unmarked) [Compound 54, N-(5-((E)-2-(2-(((1r,4r)-4-aminocyclohexyl)amino)pyrimidin-5-yl)vinyl)-3-fluoro-6-methoxypyridin-2-yl)-2-chlorobenzenesulfonamide]",50 to 100 nM
5,"COc1nc(NS(=O)(=O)c2cnccc2Cl)ccc1/C=C/c1cnc(NC2CCC(N(C)C)CC2)nc1 (centres unmarked) [Compound 56, 4-chloro-N-(5-((E)-2-(2-(((1r,4r)-4-(dimethylamino)cyclohexyl)amino)pyrimidin-5-yl)vinyl)-6-methoxypyridin-2-yl)pyridine-3-sulfonamide]",50 to 100 nM
6,"COc1nc(NS(=O)(=O)c2ccccc2Cl)ccc1/C=C/c1cnc(NC2CCC(N3CCOCC3)CC2)nc1 (centres unmarked) [Compound 57, 2-chloro-N-(6-methoxy-5-((E)-2-(2-(((1r,4r)-4-morpholinocyclohexyl)amino)pyrimidin-5-yl)vinyl)pyridin-2-yl)benzenesulfonamide]",≤ 5 nM
7,"Cc1nc(NS(=O)(=O)c2ccccc2Cl)c(F)cc1/C=C/c1cnc(NC2CCC(N)CC2)nc1 (centres unmarked) [Compound 58, N-(5-((E)-2-(2-(((1r,4r)-4-aminocyclohexyl)amino)pyrimidin-5-yl)vinyl)-3-fluoro-6-methylpyridin-2-yl)-2-chlorobenzenesulfonamide]",50 to 100 nM
8,"CNC1CCC(Nc2ncc(/C=C/c3cc(F)c(NS(=O)(=O)c4ccccc4Cl)nc3OC)cn2)CC1 (centres unmarked) [Compound 59, 2-chloro-N-(3-fluoro-6-methoxy-5-((E)-2-(2-(((1r,4r)-4-(methylamino)cyclohexyl)amino)pyrimidin-5-yl)vinyl)pyridin-2-yl)benzenesulfonamide]",50 to 100 nM

# More lines, now with the values ahead:
row,EC50,Compound
1,≤ 5 nM,"COc1nc(NS(=O)(=O)c2ccccc2Cl)ccc1/C=C/c1cnc(NC2CCC(N3CCCCC3)CC2)nc1 (centres unmarked) [Compound 60, 2-chloro-N-(6-methoxy-5-((E)-2-(2-(((1r,4r)-4-(piperidin-1-yl)cyclohexyl)amino)pyrimidin-5-yl)vinyl)pyridin-2-yl)benzenesulfonamide]"
2,≤ 5 nM,"CN(C)C1CCC(Nc2ncc(/C=C/c3ccc(NS(=O)(=O)c4ccc(F)cc4Cl)nc3)cn2)CC1 (centres unmarked) [Compound 61, 2-chloro-N-(5-((E)-2-(2-(((1r,4r)-4-(dimethylamino)cyclohexyl)amino)pyrimidin-5-yl)vinyl)pyridin-2-yl)-4-fluorobenzenesulfonamide]"
3,50 to 100 nM,"Cc1nc(NS(=O)(=O)c2cnccc2Cl)ccc1/C=C/c1cnc(NC2CCC(N(C)C)CC2)nc1 (centres unmarked) [Compound 62, 4-chloro-N-(5-((E)-2-(2-(((1r,4r)-4-(dimethylamino)cyclohexyl)amino)pyrimidin-5-yl)vinyl)-6-methylpyridin-2-yl)pyridine-3-sulfonamide]"
4,≤ 5 nM,"CN(C)C1CCC(Nc2ncc(/C=C/c3ccc(NS(=O)(=O)c4cccc(Cl)c4Cl)nc3)cn2)CC1 (centres unmarked) [Compound 63, 2,3-dichloro-N-(5-((E)-2-(2-(((1r,4r)-4-(dimethylamino)cyclohexyl)amino)pyrimidin-5-yl)vinyl)pyridin-2-yl)benzenesulfonamide]"
5,≤ 5 nM,"COc1nc(NS(=O)(=O)c2ccccc2Cl)ccc1/C=C/c1cnc(NC2CCC(N3CCSCC3)CC2)nc1 (centres unmarked) [Compound 64, 2-chloro-N-(6-methoxy-5-((E)-2-(2-(((1r,4r)-4-thiomorpholinocyclohexyl)amino)pyrimidin-5-yl)vinyl)pyridin-2-yl)benzenesulfonamide]"
6,≤ 5 nM,"COc1cc(NS(=O)(=O)c2cnccc2Cl)ccc1/C=C/c1cnc(NC2CCC(N(C)C)CC2)nc1 (centres unmarked) [Compound 65, 4-chloro-N-(4-((E)-2-(2-(((1r,4r)-4-(dimethylamino)cyclohexyl)amino)pyrimidin-5-yl)vinyl)-3-methoxyphenyl)pyridine-3-sulfonamide]"
7,≤ 5 nM,"COc1c(/C=C/c2cnc(NC3CCC(N(C)C)CC3)nc2)ccc(NS(=O)(=O)c2ccccc2Cl)c1F (centres unmarked) [Compound 66, 2-chloro-N-(4-((E)-2-(2-(((1r,4r)-4-(dimethylamino)cyclohexyl)amino)pyrimidin-5-yl)vinyl)-2-fluoro-3-methoxyphenyl)benzenesulfonamide]"
8,≤ 5 nM,"COc1cc(NS(=O)(=O)c2ccccc2Cl)c(F)cc1/C=C/c1cnc(NC2CCC(N(C)C)CC2)nc1 (centres unmarked) [Compound 67, 2-chloro-N-(4-((E)-2-(2-(((1r,4r)-4-(dimethylamino)cyclohexyl)amino)pyrimidin-5-yl)vinyl)-2-fluoro-5-methoxyphenyl)benzenesulfonamide]"
9,≤ 5 nM,"CN(C)C1CCC(Nc2ncc(/C=C/c3ccc(NS(=O)(=O)c4cccc(F)c4Cl)nc3)cn2)CC1 (centres unmarked) [Compound 68, 2-chloro-N-(5-((E)-2-(2-(((1r,4r)-4-(dimethylamino)cyclohexyl)amino)pyrimidin-5-yl)vinyl)pyridin-2-yl)-3-fluorobenzenesulfonamide]"
